According to patent US6784205B2, “Compounds that modulate the activity of PTP-1B and TC-PTP” (Sunesis Pharmaceuticals, Inc., priority 2002, dated 2004):

Columns and labels:
[1] = biological target: T1, TC-PTP (Homo sapiens, UniProt P17706); experiment: Inhibition of TC-PTP; type: biochemical; settings: read-out: IC50 against TC-PTP
T1 sequence (P17706 1-415): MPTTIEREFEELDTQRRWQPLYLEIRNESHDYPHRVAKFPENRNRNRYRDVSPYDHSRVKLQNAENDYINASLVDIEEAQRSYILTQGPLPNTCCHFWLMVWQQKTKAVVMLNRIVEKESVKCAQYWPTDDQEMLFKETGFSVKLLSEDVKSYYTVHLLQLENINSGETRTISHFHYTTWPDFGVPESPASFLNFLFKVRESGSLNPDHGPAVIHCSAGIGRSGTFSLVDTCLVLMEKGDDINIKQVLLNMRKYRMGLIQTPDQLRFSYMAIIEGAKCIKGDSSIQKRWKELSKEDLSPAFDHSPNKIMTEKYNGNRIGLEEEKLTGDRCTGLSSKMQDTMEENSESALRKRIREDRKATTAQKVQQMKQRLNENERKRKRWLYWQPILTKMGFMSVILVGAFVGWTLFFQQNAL

[2] = system: insulin receptor phosphorylation in CHO-IR cells; experiment: Insulin receptor phosphorylation in CHO-IR cells (ELISA); type: cell-based; settings: compound added 1 hour prior to harvesting, FIG. 9
Description: This example describes an illustrative assay for quantifying the degree of insulin receptor phosphorylation in cells. Any suitable cells can be used. In this example, CHO-IR cells were grown in DMEM w/10% fetal bovine serum supplemented with penicillin and streptomycin. Cells were plated at a density of 40,000 cells per well in a 96 well plate. The following day, the medium was changed to DMEM without serum and the cells were serum starved for 16 hours. 1 hour prior to harvesting, varying concentrations of a test compound diluted in DMEM were added to the cells. Where indicated, human insulin was added to cells 10 minutes prior to harvesting. Cell were lysed in 30 mM HEPES, 150 mM NaCl, 1% triton X-100, and 0.02% sodium azide. Insulin receptor phosphorylation was quantitated in an ELISA assay as described previously (Jongsoon Lee).

[3] = biological target: tyrosine phosphatase leukocyte common antigen related protein (LAR) (Homo sapiens, UniProt P10586); experiment: Inhibition of LAR; type: biochemical
[4] = biological target: T2, human PTP-1B (Homo sapiens, UniProt P18031); experiment: PTP-1B IC50 determination with pNPP substrate; type: biochemical
T2 construct: A shorter cDNA, PTP-1B 298, encoding amino acid residues 1-298 was generated; made in house; host or cells: E. coli BL21 codon plus (Stratagene), pRSETc
T2 sequence (P18031 1-298): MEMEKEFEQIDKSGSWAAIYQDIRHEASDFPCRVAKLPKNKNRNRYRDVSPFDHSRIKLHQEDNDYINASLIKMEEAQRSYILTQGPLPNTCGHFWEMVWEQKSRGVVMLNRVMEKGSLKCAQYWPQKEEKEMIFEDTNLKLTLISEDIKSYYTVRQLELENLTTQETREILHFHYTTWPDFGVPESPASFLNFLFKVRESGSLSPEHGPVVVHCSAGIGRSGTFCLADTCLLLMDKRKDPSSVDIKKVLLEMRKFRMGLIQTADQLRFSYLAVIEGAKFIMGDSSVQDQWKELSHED

tyrosine phosphatase leukocyte common antigen related protein (LAR), sequence (P10586 30-1907): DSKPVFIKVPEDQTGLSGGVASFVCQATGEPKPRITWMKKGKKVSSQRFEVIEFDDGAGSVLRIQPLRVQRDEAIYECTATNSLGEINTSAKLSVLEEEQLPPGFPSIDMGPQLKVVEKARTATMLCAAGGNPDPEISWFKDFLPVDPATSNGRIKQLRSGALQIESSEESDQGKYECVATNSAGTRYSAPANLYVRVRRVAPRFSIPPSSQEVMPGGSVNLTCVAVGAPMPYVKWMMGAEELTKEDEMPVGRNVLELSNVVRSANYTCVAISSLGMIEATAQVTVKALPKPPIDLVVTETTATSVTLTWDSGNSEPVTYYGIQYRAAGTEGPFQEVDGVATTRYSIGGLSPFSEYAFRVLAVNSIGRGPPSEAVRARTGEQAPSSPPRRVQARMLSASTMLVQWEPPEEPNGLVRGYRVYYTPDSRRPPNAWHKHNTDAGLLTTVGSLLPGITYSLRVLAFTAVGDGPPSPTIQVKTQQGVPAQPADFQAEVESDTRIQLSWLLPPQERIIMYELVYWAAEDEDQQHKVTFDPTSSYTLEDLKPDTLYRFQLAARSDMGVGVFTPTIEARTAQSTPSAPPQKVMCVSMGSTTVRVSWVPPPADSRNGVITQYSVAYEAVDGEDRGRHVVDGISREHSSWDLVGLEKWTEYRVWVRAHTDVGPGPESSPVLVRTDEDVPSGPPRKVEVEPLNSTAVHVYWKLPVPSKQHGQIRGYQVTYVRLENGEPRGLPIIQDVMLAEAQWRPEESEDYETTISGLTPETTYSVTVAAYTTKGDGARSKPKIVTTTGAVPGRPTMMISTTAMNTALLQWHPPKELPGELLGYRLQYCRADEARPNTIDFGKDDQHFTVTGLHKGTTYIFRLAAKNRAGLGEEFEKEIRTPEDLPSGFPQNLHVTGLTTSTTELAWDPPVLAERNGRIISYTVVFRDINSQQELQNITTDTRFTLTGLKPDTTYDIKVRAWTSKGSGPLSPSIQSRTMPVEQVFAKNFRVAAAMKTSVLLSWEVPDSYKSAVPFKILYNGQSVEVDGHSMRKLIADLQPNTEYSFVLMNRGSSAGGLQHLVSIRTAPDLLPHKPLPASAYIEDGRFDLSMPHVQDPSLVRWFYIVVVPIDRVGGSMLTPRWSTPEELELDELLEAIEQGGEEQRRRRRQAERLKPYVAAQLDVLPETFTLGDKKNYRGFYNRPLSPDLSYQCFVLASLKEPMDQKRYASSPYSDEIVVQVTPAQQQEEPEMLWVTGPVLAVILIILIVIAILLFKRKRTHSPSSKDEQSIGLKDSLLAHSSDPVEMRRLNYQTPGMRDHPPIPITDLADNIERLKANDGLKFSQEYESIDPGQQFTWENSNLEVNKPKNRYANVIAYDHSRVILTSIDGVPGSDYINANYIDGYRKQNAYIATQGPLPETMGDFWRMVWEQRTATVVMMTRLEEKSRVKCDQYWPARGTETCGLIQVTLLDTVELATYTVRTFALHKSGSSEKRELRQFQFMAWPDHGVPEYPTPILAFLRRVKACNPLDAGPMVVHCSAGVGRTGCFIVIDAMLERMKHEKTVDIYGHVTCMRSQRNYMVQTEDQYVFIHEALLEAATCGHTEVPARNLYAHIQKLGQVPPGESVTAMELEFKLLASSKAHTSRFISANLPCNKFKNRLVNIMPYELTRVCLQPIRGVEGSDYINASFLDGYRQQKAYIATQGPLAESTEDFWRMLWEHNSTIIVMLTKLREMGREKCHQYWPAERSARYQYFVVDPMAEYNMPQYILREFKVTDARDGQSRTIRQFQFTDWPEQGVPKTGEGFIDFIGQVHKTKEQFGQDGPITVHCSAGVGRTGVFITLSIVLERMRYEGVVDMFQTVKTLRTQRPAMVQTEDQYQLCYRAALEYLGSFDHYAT

## CCc1oc2cc(S(=O)(=O)Nc3ccc(S(N)(=O)=O)cc3)ccc2c1C(=O)c1cc(Br)c(O)c(Br)c1 [compound 5]
[1]
  IC50: ~130 µM
[2]
  level of insulin receptor phosphorylation: is a function of the concentration of compound 5
[3]
  inhibition of LAR: does not inhibit
[4]; pNPP, varying concentrations of inhibitor
  dependence of reaction velocity on substrate concentration: sigmoidal dependence
[4]; reaction velocity versus pNPP concentration, FIG. 8
  effect on Vmax with increasing inhibitor concentration: decrease in Vmax
